Tests used:
[1] = target: Tyrosine-protein kinase JAK2 (Homo sapiens, UniProt O60674)
Description: Inhibition of JAK2 (unknown origin)

[2] = target: Tyrosine-protein kinase JAK1 (Homo sapiens, UniProt P23458); test: Inhibition of JAK1 (unknown origin)
[3] = target: T1, Tyrosine-protein kinase JAK3 (Homo sapiens, UniProt P52333)
T1 sequence (P52333 whole entry): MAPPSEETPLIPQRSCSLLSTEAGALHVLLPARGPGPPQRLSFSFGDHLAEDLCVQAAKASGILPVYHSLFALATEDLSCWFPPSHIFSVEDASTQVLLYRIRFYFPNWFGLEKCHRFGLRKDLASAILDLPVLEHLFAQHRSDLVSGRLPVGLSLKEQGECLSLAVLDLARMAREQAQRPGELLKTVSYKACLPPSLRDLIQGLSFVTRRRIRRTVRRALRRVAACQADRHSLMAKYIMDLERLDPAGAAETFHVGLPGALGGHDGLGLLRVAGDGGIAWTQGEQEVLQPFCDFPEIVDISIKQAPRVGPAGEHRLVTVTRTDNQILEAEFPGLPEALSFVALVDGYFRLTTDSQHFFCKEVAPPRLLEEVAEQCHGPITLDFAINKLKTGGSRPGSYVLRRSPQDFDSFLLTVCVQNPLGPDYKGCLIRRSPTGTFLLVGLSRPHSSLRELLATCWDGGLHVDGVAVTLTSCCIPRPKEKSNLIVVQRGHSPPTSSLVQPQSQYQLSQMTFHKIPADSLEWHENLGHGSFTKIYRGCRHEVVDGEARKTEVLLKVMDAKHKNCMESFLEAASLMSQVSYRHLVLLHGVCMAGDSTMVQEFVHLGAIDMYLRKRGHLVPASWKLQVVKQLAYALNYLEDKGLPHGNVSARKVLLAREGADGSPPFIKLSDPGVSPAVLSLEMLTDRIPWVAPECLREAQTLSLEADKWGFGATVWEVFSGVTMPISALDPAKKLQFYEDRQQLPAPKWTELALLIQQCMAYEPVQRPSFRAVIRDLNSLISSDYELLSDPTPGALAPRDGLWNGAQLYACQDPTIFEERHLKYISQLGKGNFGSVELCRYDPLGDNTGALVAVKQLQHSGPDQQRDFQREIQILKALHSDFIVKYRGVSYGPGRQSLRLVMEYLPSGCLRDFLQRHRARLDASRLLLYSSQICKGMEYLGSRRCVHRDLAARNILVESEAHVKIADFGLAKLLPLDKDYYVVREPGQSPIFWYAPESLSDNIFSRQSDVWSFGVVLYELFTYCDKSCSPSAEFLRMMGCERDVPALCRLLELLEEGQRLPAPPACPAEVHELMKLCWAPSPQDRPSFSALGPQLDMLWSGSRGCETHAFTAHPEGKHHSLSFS
Description: Inhibition of JAK3 (unknown origin)

Chain of Tyrosine-protein kinase JAK1 (P23458 whole entry): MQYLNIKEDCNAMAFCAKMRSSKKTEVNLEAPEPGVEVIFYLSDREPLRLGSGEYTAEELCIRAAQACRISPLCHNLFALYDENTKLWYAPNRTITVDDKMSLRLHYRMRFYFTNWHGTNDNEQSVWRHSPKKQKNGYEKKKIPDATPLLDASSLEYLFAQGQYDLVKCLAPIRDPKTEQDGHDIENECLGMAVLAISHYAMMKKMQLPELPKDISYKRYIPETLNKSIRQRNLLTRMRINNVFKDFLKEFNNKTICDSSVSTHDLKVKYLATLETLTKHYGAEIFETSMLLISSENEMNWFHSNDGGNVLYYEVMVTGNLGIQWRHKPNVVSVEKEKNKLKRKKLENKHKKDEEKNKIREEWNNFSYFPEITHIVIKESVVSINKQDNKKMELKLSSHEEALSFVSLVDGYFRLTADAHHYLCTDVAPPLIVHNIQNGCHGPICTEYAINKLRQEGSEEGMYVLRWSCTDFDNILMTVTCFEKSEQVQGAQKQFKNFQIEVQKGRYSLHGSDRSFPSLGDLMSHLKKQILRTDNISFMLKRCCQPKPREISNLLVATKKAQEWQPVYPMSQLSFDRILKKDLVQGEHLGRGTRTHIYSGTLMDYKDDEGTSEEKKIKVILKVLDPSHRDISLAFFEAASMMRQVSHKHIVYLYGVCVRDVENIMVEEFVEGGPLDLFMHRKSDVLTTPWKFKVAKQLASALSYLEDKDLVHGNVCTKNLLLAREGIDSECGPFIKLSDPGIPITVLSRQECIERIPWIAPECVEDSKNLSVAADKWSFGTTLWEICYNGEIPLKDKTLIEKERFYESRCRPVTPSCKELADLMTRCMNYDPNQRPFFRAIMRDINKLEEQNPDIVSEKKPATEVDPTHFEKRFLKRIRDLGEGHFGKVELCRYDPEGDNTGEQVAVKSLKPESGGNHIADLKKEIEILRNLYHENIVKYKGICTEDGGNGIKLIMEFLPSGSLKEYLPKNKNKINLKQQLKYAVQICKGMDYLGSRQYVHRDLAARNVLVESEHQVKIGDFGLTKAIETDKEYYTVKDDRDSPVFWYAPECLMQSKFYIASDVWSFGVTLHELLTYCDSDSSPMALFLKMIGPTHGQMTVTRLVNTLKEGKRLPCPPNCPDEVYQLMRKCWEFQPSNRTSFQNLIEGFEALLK
Chain of Tyrosine-protein kinase JAK2 (O60674 whole entry): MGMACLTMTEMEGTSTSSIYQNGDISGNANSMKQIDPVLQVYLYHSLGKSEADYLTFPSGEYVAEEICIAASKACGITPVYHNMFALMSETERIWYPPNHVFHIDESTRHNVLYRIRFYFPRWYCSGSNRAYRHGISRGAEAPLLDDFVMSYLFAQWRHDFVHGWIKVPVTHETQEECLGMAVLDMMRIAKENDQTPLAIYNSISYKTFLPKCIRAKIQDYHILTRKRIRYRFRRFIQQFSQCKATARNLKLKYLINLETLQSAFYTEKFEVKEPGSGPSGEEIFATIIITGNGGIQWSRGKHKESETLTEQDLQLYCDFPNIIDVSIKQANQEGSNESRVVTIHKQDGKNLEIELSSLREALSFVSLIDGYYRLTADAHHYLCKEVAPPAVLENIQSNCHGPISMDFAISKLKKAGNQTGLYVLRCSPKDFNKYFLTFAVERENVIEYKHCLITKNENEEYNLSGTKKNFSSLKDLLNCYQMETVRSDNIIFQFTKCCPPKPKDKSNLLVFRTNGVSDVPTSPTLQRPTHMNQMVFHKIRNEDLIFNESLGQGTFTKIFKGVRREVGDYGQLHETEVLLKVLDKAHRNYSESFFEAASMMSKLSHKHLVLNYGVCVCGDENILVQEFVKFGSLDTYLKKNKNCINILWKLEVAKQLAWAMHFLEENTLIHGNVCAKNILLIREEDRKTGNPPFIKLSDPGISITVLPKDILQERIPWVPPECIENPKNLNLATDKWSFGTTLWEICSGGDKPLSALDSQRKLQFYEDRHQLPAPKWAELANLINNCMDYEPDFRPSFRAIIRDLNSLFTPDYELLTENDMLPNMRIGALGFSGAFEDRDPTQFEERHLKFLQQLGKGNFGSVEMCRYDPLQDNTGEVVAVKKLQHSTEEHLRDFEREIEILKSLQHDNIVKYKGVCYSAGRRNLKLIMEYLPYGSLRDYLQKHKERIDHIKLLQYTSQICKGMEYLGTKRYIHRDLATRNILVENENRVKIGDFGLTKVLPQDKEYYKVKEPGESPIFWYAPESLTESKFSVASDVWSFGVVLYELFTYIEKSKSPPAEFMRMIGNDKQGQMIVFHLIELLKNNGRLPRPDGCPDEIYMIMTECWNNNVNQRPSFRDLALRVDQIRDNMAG

Structure (SMILES)	IC50 [1] [nM]	IC50 [2] [nM]	IC50 [3] [nM]
CN(c1ncnc2[nH]ccc12)N1CCCN(C(=O)CC(F)(F)F)CC1	10000	10000	10000
CN(c1ncnc2[nH]ccc12)N1CC[C@H](C(=O)NCC(F)(F)F)C1	361	18	13
CN(c1ncnc2[nH]ccc12)N1CCCC(C(=O)NCC(F)(F)F)C1 (configuration not stated)	33.2	2.9	16.1
COCNC(=O)C1CCCN(N(C)c2ncnc3[nH]ccc23)C1 (configuration not stated)	148	21.3	83.2
CN(c1ncnc2[nH]ccc12)N1CCCC(C(=O)NCCC#N)C1 (configuration not stated)		35	188
CN(CC(F)(F)F)C(=O)C1CCCN(N(C)c2ncnc3[nH]ccc23)C1 (configuration not stated)	165	15.1	77.4
CN(c1ncnc2[nH]ccc12)N1CCCC(N2CCCC2=O)C1 (configuration not stated)	3500	1120	349
CC1CCC(C(=O)NCC(F)(F)F)CN1N(C)c1ncnc2[nH]ccc12 (configuration not stated)	2000	309	339
CN(c1ncnc2[nH]ccc12)N1CCC[C@@H](C(=O)NCC#N)C1	3.6	0.3	3.9
CN(c1ncnc2[nH]ccc12)N1CC[C@@H](C(=O)NCC(F)(F)F)C1	8.5	0.16	15
CC1CCC(C(=O)NCC#N)CN1N(C)c1ncnc2[nH]ccc12 (configuration not stated)	1430	521	362

More lines, now with the values ahead:

IC50 [1] [nM]	IC50 [2] [nM]	IC50 [3] [nM]	Structure (SMILES)
817	155	518	CN(c1ncnc2[nH]ccc12)N1CCCC(C(=O)N2CC(O)C2)C1 (configuration not stated)
43	3.3	25.1	CN(c1ncnc2[nH]ccc12)N1CCC(C(=O)NCC#N)C1 (configuration not stated)
16.1	1.6	8.3	CN(c1ncnc2[nH]ccc12)N1CCCC(C(=O)NCC(F)F)C1 (configuration not stated)
13	0.7	6.2	CN(c1ncnc2[nH]ccc12)N1CCC[C@@H](C(=O)NCC(F)(F)F)C1
272	12	287	CN(c1ncnc2[nH]ccc12)N1CCC(C(=O)NCC#N)CC1
4800	1860	1580	CN(c1ncnc2[nH]ccc12)N1CCCC(C)(C(=O)NCC#N)C1 (configuration not stated)
36	1.9	29	CN(c1ncnc2[nH]ccc12)N1CCC(C(=O)NCC(F)(F)F)C1 (configuration not stated)
10000	5020	5970	CN(c1ncnc2[nH]ccc12)N1CCC(C)(C(=O)NCC(F)(F)F)C1 (configuration not stated)
11.6	1.6	8	CN(c1ncnc2[nH]ccc12)N1CCCC(C(=O)NCC#N)C1 (configuration not stated)
316	14	186	CN(c1ncnc2[nH]ccc12)N1CCC(C(=O)NCC(F)(F)F)CC1

From ChEMBL document CHEMBL5104143, “Synthesis and evaluation of hydrazinyl-containing pyrrolo[2,3-d]pyrimidine series as potent, selective and oral JAK1 inhibitors for the treatment of rheumatoid arthritis” (Bioorg Med Chem Lett, 2022)
